Assay results published in ChEMBL document CHEMBL1201862, “PubChem BioAssay data set” (2004).
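All cell lines were grown in 96-well plates and treated with compound for 48 hours. Abbreviation: GI50, concentration required for 50% inhibition of growth.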 The source made the active and inactive calls. No stated cut-off is given here; in the data, active = GI50 up to about 1.1 µM and inactive = higher.

Assays:
Assay in all cases: NCI-60 cell line screen, 48 h
786-0 = test system: 786-0
A498 = test system: A498
ACHN = test system: ACHN
CCRF-CEM = test system: CCRF-CEM
COLO 205 = test system: COLO 205
DMS-114 = test system: DMS-114
HCT-116 = test system: HCT-116
HOP-62 = test system: HOP-62
HOP-92 = test system: HOP-92
HT-29 = test system: HT-29
IGROV-1 = test system: IGROV-1
K562 = test system: K562
KM-20L2 = test system: KM-20L2
KM12 = test system: KM12
LXFL 529 = test system: LXFL 529
M14 = test system: M14
M19-MEL = test system: M19-MEL
MOLT-4 = test system: MOLT-4
Malme-3M = test system: Malme-3M
NCI-H23 = test system: NCI-H23
NCI-H460 = test system: NCI-H460
NCI-H522 = test system: NCI-H522
OVCAR-3 = test system: OVCAR-3
OVCAR-4 = test system: OVCAR-4
OVCAR-5 = test system: OVCAR-5
RPMI-8226 = test system: RPMI-8226
RXF 393 = test system: RXF 393
SF-268 = test system: SF-268
SF-295 = test system: SF-295
SK-MEL-28 = test system: SK-MEL-28
SK-OV-3 = test system: SK-OV-3
SNB-19 = test system: SNB-19
SNB-75 = test system: SNB-75
SNB-78 = test system: SNB-78
SR = test system: SR
U-251 = test system: U-251
UACC-257 = test system: UACC-257
UACC-62 = test system: UACC-62
UO-31 = test system: UO-31
A549 = test system: A549
BT-549 = test system: BT-549
CAKI-1 = test system: CAKI-1
DU-145 = test system: DU-145
EKVX = test system: EKVX
HCC 2998 = test system: HCC 2998
HCT-15 = test system: HCT-15
HL-60 = test system: HL-60
Hs-578T = test system: Hs-578T
LOX IMVI = test system: LOX IMVI
MCF7 = test system: MCF7
MDA-MB-231 = test system: MDA-MB-231
MDA-MB-435 = test system: MDA-MB-435
MDA-N = test system: MDA-N
NCI-H226 = test system: NCI-H226
NCI/ADR-RES = test system: NCI/ADR-RES
OVCAR-8 = test system: OVCAR-8
PC-3 = test system: PC-3
SF-539 = test system: SF-539
SK-MEL-2 = test system: SK-MEL-2
SK-MEL-5 = test system: SK-MEL-5
SN12C = test system: SN12C
SW-620 = test system: SW-620
T47D = test system: T47D
TK-10 = test system: TK-10

For `COc1ccc2c(c1)CC[C@@H]1C2CC[C@](C)(C#N)C1CC#N` (stereo partly drawn), the GI50 (786-0) was > 100 µM (inactive), the GI50 (A498) was > 100 µM (inactive) and the GI50 (ACHN) was > 100 µM (inactive). For the same compound, the GI50 (CCRF-CEM) was > 100 µM (inactive), the GI50 (COLO 205) was > 100 µM (inactive) and the GI50 (DMS-114) was > 100 µM (inactive). The GI50 (HCT-116) was > 100 µM (inactive), the GI50 (HOP-62) was > 100 µM (inactive) and the GI50 (HOP-92) was > 100 µM (inactive). The GI50 (HT-29) was > 100 µM (inactive), the GI50 (IGROV-1) was > 100 µM (inactive) and the GI50 (K562) was > 100 µM (inactive). For the same compound, the GI50 (KM-20L2) was > 100 µM (inactive), the GI50 (KM12) was > 100 µM (inactive) and the GI50 (LXFL 529) was > 100 µM (inactive). For the same compound, the GI50 (M14) was > 100 µM (inactive), the GI50 (M19-MEL) was > 100 µM (inactive) and the GI50 (MOLT-4) was > 100 µM (inactive). The GI50 (Malme-3M) was > 100 µM (inactive), the GI50 (NCI-H23) was > 100 µM (inactive) and the GI50 (NCI-H460) was > 100 µM (inactive). For the same compound, the GI50 (NCI-H522) was > 100 µM (inactive), the GI50 (OVCAR-3) was > 100 µM (inactive) and the GI50 (OVCAR-4) was > 100 µM (inactive). The GI50 (OVCAR-5) was > 100 µM (inactive), the GI50 (RPMI-8226) was > 100 µM (inactive) and the GI50 (RXF 393) was > 100 µM (inactive). The GI50 (SF-268) was > 100 µM (inactive), the GI50 (SF-295) was > 100 µM (inactive) and the GI50 (SK-MEL-28) was > 100 µM (inactive). For the same compound, the GI50 (SK-OV-3) was > 100 µM (inactive), the GI50 (SNB-19) was > 100 µM (inactive) and the GI50 (SNB-75) was > 100 µM (inactive). For the same compound, the GI50 (SNB-78) was > 100 µM (inactive), the GI50 (SR) was > 100 µM (inactive) and the GI50 (U-251) was > 100 µM (inactive). The GI50 (UACC-257) was > 100 µM (inactive), the GI50 (UACC-62) was > 100 µM (inactive) and the GI50 (UO-31) was > 100 µM (inactive).

In the case of `CSC(=S)OC1CC(n2cnc3c(NC(=O)c4ccccc4)ncnc32)OC1CO[Si](C)(C)C(C)(C)C` (stereo not drawn), the GI50 (786-0) is reported as 13.6 µM (inactive), the GI50 (A498) is reported as 19.1 µM (inactive) and the GI50 (A549) is reported as 12.4 µM (inactive). For the same compound, the GI50 (ACHN) was 13.8 µM (inactive), the GI50 (BT-549) was 16.5 µM (inactive) and the GI50 (CAKI-1) was > 46.5 µM (inactive). The GI50 (CCRF-CEM) was 3.5 µM (inactive), the GI50 (COLO 205) was 5.85 µM (inactive) and the GI50 (DU-145) was 26.9 µM (inactive). For the same compound, the GI50 (EKVX) was 25.1 µM (inactive), the GI50 (HCC 2998) was 9.02 µM (inactive) and the GI50 (HCT-116) was 7.82 µM (inactive). The GI50 (HCT-15) was 13.2 µM, the GI50 (HL-60) was 2.84 µM (inactive) and the GI50 (HOP-62) was 28.6 µM (inactive). The GI50 (HOP-92) was 13.9 µM (inactive), the GI50 (HT-29) was 9.18 µM (inactive) and the GI50 (Hs-578T) was 38.8 µM (inactive). The GI50 (IGROV-1) was 27.2 µM (inactive), the GI50 (K562) was 3.78 µM (inactive) and the GI50 (KM12) was 5.6 µM (inactive). For the same compound, the GI50 (LOX IMVI) was 8.55 µM (inactive), the GI50 (M14) was 13.9 µM (inactive) and the GI50 (MCF7) was 8.05 µM (inactive). For the same compound, the GI50 (MDA-MB-231) was 41.1 µM (inactive), the GI50 (MDA-MB-435) was 6.12 µM (inactive) and the GI50 (MDA-N) was 7.87 µM (inactive). For the same compound, the GI50 (MOLT-4) was 2.03 µM (inactive), the GI50 (Malme-3M) was 21.1 µM (inactive) and the GI50 (NCI-H226) was 14.2 µM (inactive). For the same compound, the GI50 (NCI-H23) was 13.2 µM (inactive), the GI50 (NCI-H460) was 11.1 µM (inactive) and the GI50 (NCI-H522) was 7.18 µM (inactive). For the same compound, the GI50 (NCI/ADR-RES) was 9.02 µM (inactive), the GI50 (OVCAR-3) was 11 µM (inactive) and the GI50 (OVCAR-4) was 7.57 µM (inactive). For the same compound, the GI50 (OVCAR-5) was 49.4 µM (inactive), the GI50 (OVCAR-8) was 13.3 µM (inactive) and the GI50 (PC-3) was 5.64 µM (inactive). For the same compound, the GI50 (RPMI-8226) was 16.3 µM (inactive), the GI50 (RXF 393) was 4.35 µM (inactive) and the GI50 (SF-268) was 30.7 µM (inactive). The GI50 (SF-295) was 9.82 µM (inactive), the GI50 (SF-539) was 36.3 µM (inactive) and the GI50 (SK-MEL-28) was 33.3 µM (inactive). The GI50 (SK-MEL-2) was 16.2 µM (inactive), the GI50 (SK-MEL-5) was 5.45 µM (inactive) and the GI50 (SK-OV-3) was 36.6 µM (inactive). For the same compound, the GI50 (SN12C) was 14.4 µM (inactive), the GI50 (SNB-19) was 36.7 µM (inactive) and the GI50 (SNB-75) was 34.1 µM (inactive). The GI50 (SR) was 11 µM (inactive), the GI50 (SW-620) was 12.5 µM (inactive) and the GI50 (T47D) was 5 µM (inactive). The GI50 (TK-10) was 35.6 µM (inactive), the GI50 (U-251) was 7.41 µM (inactive) and the GI50 (UACC-257) was 14.7 µM (inactive). For the same compound, the GI50 (UACC-62) was 14.1 µM (inactive) and the GI50 (UO-31) was 4.4 µM (inactive).
